Laboratory results reported in patent EP0572122A2, “C-terminal modified osteogenic growth polypeptides” (YISSUM RESEARCH AND DEVELOPMENT COMPANY OF THE HEBREW …, priority 1992, dated 1993).

Test system: anti-OGP IgG
Assay: ELISA reactivity of peptides with the anti-OGP IgG preparation
Assay type: binding, rabbits
Conditions: polyclonal rabbit anti-OGP IgG fraction
Procedure: The wells were washed with 200 µl PBS (x3). Blocking of unreacted sites on the plastic well bottom was carried out by incubation of 1% gelatine in PBS at 37°C for 1 h. Rinsing with PBS (3 x 200 µl) was followed by 2 h incubation with the anti-OGP IgG preparation (diluted 1:300 with reference to the original rabbit anti-serum) at room temperature. This was followed by rinsing with (i) 3% BSA in PBS (1 x 200 µl); (ii) 0.02% Tween 20 in PBS (1 x 200 µl); and (iii) PBS (3 x 200 µl). The wells were then incubated with 100 µl of 1:1000 dilution in PBS of goat alkaline phosphatase conjugated anti-rabbit IgG for 2 h at room temperature. Rinsing with (i) 0.02% Tween in PBS (1 x 200 µl); (ii) PBS (2 x 200 µl); (iii) bidistilled water (3 x 200 µl) preceded a 20 min incubation at room temperature with alkaline phosphatase buffer solution: p-nitrophenyl phosphate 1 mg/ml in substrate buffer (diethanolamine buffer pH 9.6). Light absorbance at 450 nm was then recorded using an ELISA reader.

binding to / reaction with anti-OGP IgG in ELISA: failed to react
Substance: parathyroid hormone (PTH) (1-34) [PTH (1-34)]
